pIC50, pKi: −log10 of the molar value. Like-named read-outs stand apart in the source and are kept apart here.
Tests used:
[1] = molecular target: T1, rat GPR14 (U-II receptor) (Rattus norvegicus, UniProt P49684); experiment: Rat UII Calcium Mobilization FLIPR Assay; assay type: cell-based; settings: CHO cells transfected with rat GPR14; antagonist activity after 5 min incubation vs agonist (Ac)-CFWK(2-NaI)C-NH2 at 1 nM
T1 construct: expressed in transfected cells
T1 sequence (P49684 1-386): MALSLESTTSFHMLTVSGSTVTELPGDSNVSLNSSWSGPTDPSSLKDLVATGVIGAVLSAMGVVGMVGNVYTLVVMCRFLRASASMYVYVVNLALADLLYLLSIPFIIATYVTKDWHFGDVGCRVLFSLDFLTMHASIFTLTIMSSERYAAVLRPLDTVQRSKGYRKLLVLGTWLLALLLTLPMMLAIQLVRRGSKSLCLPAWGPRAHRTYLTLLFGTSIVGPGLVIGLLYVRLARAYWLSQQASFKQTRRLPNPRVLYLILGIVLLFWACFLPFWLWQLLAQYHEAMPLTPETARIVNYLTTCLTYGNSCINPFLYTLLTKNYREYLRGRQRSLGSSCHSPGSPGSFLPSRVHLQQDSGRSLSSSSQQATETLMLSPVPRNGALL
Outline: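 CHO cells stably expressing rat U-II receptor, seeded 24 h before assay, were loaded with FLIPR calcium dye in HBSS/20 mM HEPES/0.1% BSA/2.5 mM probenecid, pH 7.4, for 1 h at 37° C. Calcium mobilization then read by FLIPR at 23° C.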

[2] = molecular target: T2, Human UII (U-II receptor) in 6D9 human rhabdomyosarcoma cells (Homo sapiens, UniProt Q9UKP6); experiment: Human UII Calcium Mobilization Assay; assay type: cell-based; settings: 6D9 human rhabdomyosarcoma cells, FLIPR TETRA, average; read-out: Human UII Ca+ Mobilization Average IC50
T2 construct: 6D9: isolated by dilution subcloning of RMS13 cells, ATCC® Number: CRL-2061; host or cells: 6D9 human rhabdomyosarcoma cells (subclone of RMS13)
T2 sequence (Q9UKP6 1-389): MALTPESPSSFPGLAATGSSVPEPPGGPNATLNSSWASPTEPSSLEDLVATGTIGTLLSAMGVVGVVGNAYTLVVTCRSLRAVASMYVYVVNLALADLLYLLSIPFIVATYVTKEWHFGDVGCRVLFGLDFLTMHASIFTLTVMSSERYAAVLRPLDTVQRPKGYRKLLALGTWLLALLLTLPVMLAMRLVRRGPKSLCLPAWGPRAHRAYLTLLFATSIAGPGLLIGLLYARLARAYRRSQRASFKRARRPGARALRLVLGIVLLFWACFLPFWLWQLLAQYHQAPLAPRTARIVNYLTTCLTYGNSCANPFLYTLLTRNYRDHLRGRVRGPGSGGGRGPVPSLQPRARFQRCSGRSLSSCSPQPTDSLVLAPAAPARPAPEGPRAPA

[3] = molecular target: T3, UT receptors in HSMM (Human Skeletal Muscle Myoblasts) (Homo sapiens, UniProt Q9UKP6); experiment: Human Radioligand Binding Assay ((^125I)-U-II binding to intact HSMM)
T3 sequence (Q9UKP6 1-389): T2 sequence (Q9UKP6 1-389)

SMILES | pIC50 [1] | pIC50 [2] | pKi [3] | pKi ([3]; read-out: Human UII Average Binding Ki, intact HSMM, 0.150 nM (^125I)-U-II, 3 h, 25° C.)
CCN1CCN(c2cccc3c2CN(C(c2ccc(OC)c(OC)c2)C2CCN(Cc4ccccc4)CC2)C3=O)CC1 (stereo not drawn) [Cpd 43, 2-[(1-benzyl-piperidin-4-yl)-(3,4-dimethoxy-phenyl)-methyl]-4-(4-ethyl-piperazin-1-yl)-2,3-dihydro-isoindol-1-one] | 6.76 | 5.57 | < 6.52 | –
CCN1CCN(c2cccc3c2CN([C@H](CCCNS(=O)(=O)O)c2ccc(OC)c(OC)c2)C3=O)CC1 [Cpd 71, {(4R)-4-(3,4-dimethoxy-phenyl)-4-[4-(4-ethyl-piperazin-1-yl)-1-oxo-1,3-dihydro-isoindol-2-yl]-butyl}-sulfamic acid] | 6.34 | 5.75 | < 6.52 | –
CCN1CCN(c2cccc3c2CN([C@H](CCCNc2nccc(OC)n2)c2ccc(OC)c(OC)c2)C3=O)CC1 [Cpd 21, 2-[(1R)-1-(3,4-dimethoxy-phenyl)-4-(4-methoxy-pyrimidin-2-ylamino)-butyl]-4-(4-ethyl-piperazin-1-yl)-2,3-dihydro-isoindol-1-one] | 8.40 | 6.21 | 8.10 | –
CCN1CCN(c2cccc3c2CN([C@H](CCCn2ccnc2)c2ccc(OC)c(OC)c2)C3=O)CC1 [Cpd 32, 2-[(1R)-1-(3,4-dimethoxy-phenyl)-4-imidazol-1-yl-butyl]-4-(4-ethyl-piperazin-1-yl)-2,3-dihydro-isoindol-1-one] | 7.35 | 5.69 | 6.80 | –
CCN1CCN(c2cccc3c2CN(C(c2cccc(NS(=O)(=O)c4cccs4)c2)c2ccc(OC)c(OC)c2)C3=O)CC1 (stereo not drawn) [Cpd 16, thiophene-2-sulfonic acid (3-{(3,4-dimethoxy-phenyl)-[4-(4-ethyl-piperazin-1-yl)-1-oxo-1,3-dihydro-isoindol-2-yl]-methyl}-phenyl)-amide] | 7.51 | 5.90 | 7.18 | –
CCN1CCN(c2cccc3c2CN([C@H](CCCN(C)Cc2cccc(F)c2)c2ccc(OC)c(OC)c2)C3=O)CC1 [Cpd 98, 2-{(1R)-1-(3,4-dimethoxy-phenyl)-4-[(3-fluoro-benzyl)-methyl-amino]-butyl}-4-(4-ethyl-piperazin-1-yl)-2,3-dihydro-isoindol-1-one] | 8.40 | 6.98 | 7.23 | –
CCN1CCN(c2cccc3c2CN([C@H](CCCN(C)S(=O)(=O)N(C)C)c2ccc(OC)c(OC)c2)C3=O)CC1 [Cpd 1, dimethylaminosulfonic acid {(4R)-4-(3,4-dimethoxy-phenyl)-4-[4-(4-ethyl-piperazin-1-yl)-1-oxo-1,3-dihydro-isoindol-2-yl]-butyl}-methyl-amide] | 8.15 | 6.69 | 7.26 | –
CCN1CCN(c2cccc3c2CN([C@H](CCCN(Cc2ccncc2)Cc2ccncc2)c2ccc(OC)c(OC)c2)C3=O)CC1 [Cpd 63, 2-[(1R)-4-(bis-pyridin-4-ylmethyl-amino)-1-(3,4-dimethoxy-phenyl)-butyl]-4-(4-ethyl-piperazin-1-yl)-2,3-dihydro-isoindol-1-one] | 8.15 | 7.70 | 8.10 | –
COc1ccc([C@@H](CCCNc2nccc(C(F)(F)F)n2)N2Cc3c(cccc3N3CCN(C4CC4)CC3)C2=O)cc1OC [Cpd 4, 4-(4-cyclopropyl-piperazin-1-yl)-2-[(1R)-1-(3,4-dimethoxy-phenyl)-4-(4-trifluoromethyl-pyrimidin-2-ylamino)-butyl]-2,3-dihydro-isoindol-1-one] | 5.77 | 5.15 | < 6.52 | –
CCN1CCN(c2cccc3c2CN([C@H](CCCNC(=O)C(C)(C)C)c2ccc(OC)c(OC)c2)C3=O)CC1 [Cpd 83, N-{(4R)-4-(3,4-dimethoxy-phenyl)-4-[4-(4-ethyl-piperazin-1-yl)-1-oxo-1,3-dihydro-isoindol-2-yl]-butyl}-2,2-dimethyl-propionamide] | 7.35 | 6.70 | 7.77 | –
CCN1CCN(c2cccc3c2CN([C@H](CCCn2ncnn2)c2ccc(OC)c(OC)c2)C3=O)CC1 [Cpd 15, 2-[(1R)-1-(3,4-dimethoxy-phenyl)-4-tetrazol-2-yl-butyl]-4-(4-ethyl-piperazin-1-yl)-2,3-dihydro-isoindol-1-one] | 7.24 | 5.80 | 6.76 | –
CCN1CCN(c2cccc3c2CN([C@H](CCCNC(=O)c2ccnnc2)c2ccc(OC)c(OC)c2)C3=O)CC1 [Cpd 61, pyridazine-4-carboxylic acid {(4R)-4-(3,4-dimethoxy-phenyl)-4-[4-(4-ethyl-piperazin-1-yl)-1-oxo-1,3-dihydro-isoindol-2-yl]-butyl}-amide] | 7.16 | 6.07 | 7.54 | –
CCN1CCN(c2cccc3c2CN([C@H](CCCNCc2cccs2)c2ccc(OC)c(OC)c2)C3=O)CC1 [Cpd 72, 2-{(1R)-1-(3,4-dimethoxy-phenyl)-4-[(thiophen-2-ylmethyl)-amino]-butyl}-4-(4-ethyl-piperazin-1-yl)-2,3-dihydro-isoindol-1-one] | 8.22 | 7.23 | – | 7.74
CCN1CCN(c2cccc3c2CN(C(CC2CCN(S(=O)(=O)O)CC2)c2ccc(OC)c(OC)c2)C3=O)CC1 (stereo not drawn) [Cpd 17, 4-{2-(3,4-dimethoxy-phenyl)-2-[4-(4-ethyl-piperazin-1-yl)-1-oxo-1,3-dihydro-isoindol-2-yl]-ethyl}-piperidine-1-sulfonic acid] | 6.47 | 6.18 | 7.13 | –
CCN1CCN(c2cccc3c2CN([C@H](CCCNC(=O)c2ccncc2)c2ccc(OC)c(OC)c2)C3=O)CC1 [Cpd 54, N-{(4R)-4-(3,4-dimethoxy-phenyl)-4-[4-(4-ethyl-piperazin-1-yl)-1-oxo-1,3-dihydro-isoindol-2-yl]-butyl}-isonicotinamide] | 7.09 | 6.20 | 7.11 | –
CCN1CCN(c2cccc3c2CN([C@H](CCCOCc2ccccc2Cl)c2ccc(OC)c(OC)c2)C3=O)CC1 [Cpd 47, 2-[(1R)-4-(2-chloro-benzyloxy)-1-(3,4-dimethoxy-phenyl)-butyl]-4-(4-ethyl-piperazin-1-yl)-2,3-dihydro-isoindol-1-one] | 5.89 | 5.21 | < 6.52 | –
CCN1CCN(c2cccc3c2CN([C@H](CCCN(Cc2ccc(F)cc2)C2CC2)c2ccc(OC)c(OC)c2)C3=O)CC1 [Cpd 90, 2-[(1R)-4-[cyclopropyl-(4-fluoro-benzyl)-amino]-1-(3,4-dimethoxy-phenyl)-butyl]-4-(4-ethyl-piperazin-1-yl)-2,3-dihydro-isoindol-1-one] | 8.22 | 6.77 | 7.47 | –
CCN1CCN(c2cccc3c2CN([C@H](CCCNCC(C)(C)C)c2ccc(OC)c(OC)c2)C3=O)CC1 [Cpd 75, 2-[(1R)-1-(3,4-dimethoxy-phenyl)-4-(2,2-dimethyl-propylamino)-butyl]-4-(4-ethyl-piperazin-1-yl)-2,3-dihydro-isoindol-1-one] | 7.43 | 5.59 | 6.62 | –
CCN1CCN(c2cccc3c2CN(C(c2ccc(OC)c(OC)c2)C2CCN(S(=O)(=O)c4cccs4)CC2)C3=O)CC1 (stereo not drawn) [Cpd 45, 2-{(3,4-dimethoxy-phenyl)-[1-(thiophene-2-sulfonyl)-piperidin-4-yl]-methyl}-4-(4-ethyl-piperazin-1-yl)-2,3-dihydro-isoindol-1-one] | 6.33 | 5.48 | < 6.52 | –
CCN1CCN(c2cccc3c2CN([C@H](CCCN(C)S(=O)(=O)c2cn(C)c(C)n2)c2ccc(OC)c(OC)c2)C3=O)CC1 [Cpd 39, 1,2-dimethyl-1H-imidazole-4-sulfonic acid {(4R)-4-(3,4-dimethoxy-phenyl)-4-[4-(4-ethyl-piperazin-1-yl)-1-oxo-1,3-dihydro-isoindol-2-yl]-butyl}-methyl-amide] | 6.86 | 6.01 | 6.79 | –
CCN1CCN(c2cccc3c2CN([C@H](CCCNc2nc(OC)cc(OC)n2)c2ccc(OC)c(OC)c2)C3=O)CC1 [Cpd 10, 2-[(1R)-1-(3,4-dimethoxy-phenyl)-4-(4,6-dimethoxy-pyrimidin-2-ylamino)-butyl]-4-(4-ethyl-piperazin-1-yl)-2,3-dihydro-isoindol-1-one] | 8.40 | 6.21 | 7.09 | –
